Among the data in patent US20080318954A1, “Compounds” (Cyclacel Limited, priority 2004, published 2008) are fold induction, IC50 and inhibition values, retold here.

In general, fold induction refers to the signal under treatment as a multiple of the control signal. Broadly, the inhibition is the share of the control response that was lost under treatment. High values mean strong suppression, low ones little suppression.

Experiment [1] relates to glycogen synthase activity in HEK293 cells. Nature of the experiment: Glycogen synthase (GS) assay in HEK293 cells. The experiment is classed as cell-based, human. To be noted: Homo sapiens; In HEK293 cells at [compound] = 5 μM (Table 2). The protocol: Cells on 10 cm dishes (Human Embryonic Kidney (HEK) 293 cells, L6 rat myocytes, or 3T3 mouse adipocytes) were treated with different concentrations of GSK3-inhibitors or DMSO vehicle for 90 min. Incubation medium was removed and cells were washed with ice-cold phosphate-buffered saline (PBS) prior to lysis on ice in 50 mM HEPES, pH 7.5, 10 mM EDTA, 100 mM NaF, 5 mM DTT, protease inhibitor cocktail (Sigma). After a freeze/thaw cycle the samples are sonicated for 10 sec and centrifuged at 15,000 g for 10 min at 4° C. Lysate supernatants were snap-frozen on liquid nitrogen and stored at −80° C. Lysates were assayed for glycogen synthase activity in buffer (50 mM Tris-HCl, pH 7.8, 20 mM EDTA, 25 mM NaF, 5 mM DTT, 1% glycogen, 0.3 mM UDP-glucose and 0.06 μCi of [^14C]-UDP-glucose in the presence of 0.1 or 10 mM glucose-6-phosphate. The reaction was carried out for 30 min at 30° C. 70 μL of the reaction mixture (total volume 90 μL) were transferred to a GFC 96-well filter plate (bottom sealed with foil), containing 140 μL 96% ethanol. The GFC plate was incubated for 1 h on ice and than washed with 66% ethanol. To each well 100 μL scintillant liquid was added and the radioactivity of the samples was measured using a scintillation counter (Topcount, HP). Data are expressed as -fold increase in glycogen synthase activity ratios over those of control samples.

Experiment [2] concerns the target T1, GSK-3β (Oryctolagus cuniculus, UniProt G1T8E2).
T1 construct: isolated from a strain of E. coli that carries a clone expressing GSK-3β derived from a rabbit skeletal muscle cDNA library [34]
In words: GSK-3β kinase assay. Format: biochemical, rabbit. To be noted: read-out: Kinase inhibition IC50 GSK3β. Here is the method: GSK-3 was obtained from New England Biolabs (UK) Ltd., Hitchin, Herts. The recombinant enzyme was isolated from a strain of E. coli that carries a clone expressing GSK-3β derived from a rabbit skeletal muscle cDNA library. Inhibition of GSK-3 function was assessed by measurement of phosphorylation of CREB phosphopeptide KRREILSRRPpSYR in the presence of test compounds. Using a 96-well assay format, GSK3 (7.5 U) was incubated for 30 min at 30° C. in a total volume of 25 μL in 20 mM MOPS pH 7.2, 25 mM β-glycerophosphate, 5 mM EGTA, 1 mM DTT, 1 mM […], 40 μM CREB peptide, 15 mM MgCl2 and 100 μM ATP (containing 0.25 μCi [γ-^32P]-ATP) in the presence of varying concentrations of test compound. The samples were transferred to 96-well p81 filter plates (Whatman Polyfiltronics, Kent, UK), and the plates were washed 4 times with 200 μL/well of 75 mM aq orthophosphoric acid. Scintillation liquid (50 μL) was added to each well, and incorporated radioactivity for each sample was determined using a scintillation counter (TopCount, Packard Instruments, Pangbourne, Berks, UK).

The target in experiment [3] is T2, CDK2/cyclin E (Homo sapiens, UniProt P24941).
T2 construct: His6 (N); made in house; host or cells: Sf9 insect cells (baculovirus)
In words: CDK/cyclin kinase assay, CDK2/cyclin E. The experiment is classed as biochemical. To be noted: for inhibition at 1 µM: primary screening at 1 μM; for IC50: read-out: Kinase inhibition IC50 CDK2/E. Here is the method: (§1) CDK4/cyclin D1, CDK1/cyclin B, CDK2/cyclin E, CDK2/cyclin A, CDK9/cyclin T1 and CDK7/cyclin H, all with a His6 tag on the N-terminus, were expressed in Sf9 insect cells using an appropriate baculovirus construct. Sf9 culture (1.6×10^6 cells/mL) was infected (MOI of 3) for two days. The cells were harvested by low speed centrifugation and the protein was purified from the insect cell pellet by metal affinity chromatography. In short: the insect cell pellet was lysed in Buffer A (10 mM Tris-HCl pH 8.0, 150 mM NaCl, 0.02% NP-40, 5 mM β-mercaptoethanol, 20 mM NaF, 1 mM Na3VO4, and Sigma Protease Inhibitor Cocktail) by sonication. The soluble fraction was cleared by centrifugation and loaded onto Ni-NTA-Agarose (Qiagen). Non-bound protein was washed off with 300 mM NaCl, 5-15 mM imidazole in buffer A and the bound protein was eluted with buffer A supplemented with 250 mM imidazole. The purified proteins were extensively dialyzed against storage buffer (20 mM HEPES pH 7.4, 50 mM NaCl, 2 mM DTT, 1 mM EDTA, 1 mM EGTA, 0.02% NP-40, 10% v/v glycerol) and stored at −70° C.
(§2) Compounds were investigated for their CDK2/cyclin E, CDK2/cyclin A, CDK1/cyclin B, and CDK4/cyclin D1 inhibitory activity. His6-tagged recombinant human cyclin-dependent kinases CDK1/cyclin B1, CDK2/cyclin E, CDK2/cyclin A, and CDK4 were expressed in sf9 insect cells using a baculovirus expression system. Recombinant cyclin D1 was expressed in E. coli. Proteins were purified by metal chelate affinity chromatography to greater than 90% homogeneity. Kinase assays were performed in 96-well plates using recombinant CDK/cyclins. Assays were performed in assay buffer (25 mM β-glycerophosphate, 20 mM MOPS, 5 mM EGTA, 1 mM DTT, 1 mM […], pH 7.4), into which were added 2-4 μg of active enzyme with appropriate substrates (purified histone H1 for CDK1 and CDK2, recombinant GST-retinoblastoma protein (residues 773-928) for CDK4). The reaction was initiated by addition of Mg/ATP mix (15 mM MgCl2+100 μM ATP with 30-50 kBq per well of [γ-^32P]-ATP) and mixtures incubated for 10-45 min, as required, at 30° C. Reactions were stopped on ice, followed by filtration through p81 or GF/C filterplates (for CDK4) (Whatman Polyfiltronics, Kent, UK). After washing 3 times with 75 mM aq orthophosphoric acid, plates were dried, scintillant added and incorporated radioactivity measured in a scintillation counter (TopCount, Packard Instruments, Pangbourne, Berks, UK). Compounds for kinase assays were made up as 10 mM stocks in DMSO and diluted into 10% DMSO in assay buffer. Data was analysed using curve-fitting software (GraphPad Prism version 3.00 for Windows, GraphPad Software, San Diego Calif. USA) to determine IC50 values (concentration of test compound which inhibits kinase activity by 50%).

Experiment [4] concerns the target T3, CDK2/cyclin A (Homo sapiens, UniProt P24941).
T3 construct: His6 (N); made in house; host or cells: Sf9 insect cells (baculovirus)
Nature of the experiment: CDK/cyclin kinase assay, CDK2/cyclin A. The experiment is classed as biochemical. To be noted: for inhibition at 1 µM: primary screening at 1 μM; for IC50: read-out: Kinase inhibition IC50 CDK2/A. The protocol: as §1, §2

Experiment [5] deals with T4, CDK1/cyclin B1 (Homo sapiens, UniProt P06493).
T4 construct: His6 (N); made in house; host or cells: Sf9 insect cells (baculovirus)
In words: CDK/cyclin kinase assay, CDK1/cyclin B1. The conditions noted are these: for inhibition at 1 µM: primary screening at 1 μM; for IC50: read-out: Kinase inhibition IC50 CDK1/B1. Format: biochemical. The protocol: as §1, §2

Experiment [6] addresses T5, CDK4/cyclin D1 (Homo sapiens, UniProt P11802).
T5 construct: His6 (N); made in house; host or cells: CDK4: Sf9 insect cells (baculovirus); Cyclin D1: E. coli, Sf9
In words: CDK/cyclin kinase assay, CDK4/cyclin D1. The experiment is classed as biochemical. To be noted: for IC50: read-out: Kinase inhibition IC50 CDK4/D1; for inhibition at 1 µM: primary screening at 1 μM. The protocol: as §1, §2

T5 sequence (P11802 whole entry): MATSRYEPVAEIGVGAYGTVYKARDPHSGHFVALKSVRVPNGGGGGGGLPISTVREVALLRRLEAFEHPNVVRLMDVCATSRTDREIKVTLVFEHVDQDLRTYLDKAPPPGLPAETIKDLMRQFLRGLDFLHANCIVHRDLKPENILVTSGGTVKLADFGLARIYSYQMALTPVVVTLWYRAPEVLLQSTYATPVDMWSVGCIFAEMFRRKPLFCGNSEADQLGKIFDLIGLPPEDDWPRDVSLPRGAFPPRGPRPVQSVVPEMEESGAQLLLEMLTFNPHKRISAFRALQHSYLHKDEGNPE
T5 sequence (P24385 whole entry partner): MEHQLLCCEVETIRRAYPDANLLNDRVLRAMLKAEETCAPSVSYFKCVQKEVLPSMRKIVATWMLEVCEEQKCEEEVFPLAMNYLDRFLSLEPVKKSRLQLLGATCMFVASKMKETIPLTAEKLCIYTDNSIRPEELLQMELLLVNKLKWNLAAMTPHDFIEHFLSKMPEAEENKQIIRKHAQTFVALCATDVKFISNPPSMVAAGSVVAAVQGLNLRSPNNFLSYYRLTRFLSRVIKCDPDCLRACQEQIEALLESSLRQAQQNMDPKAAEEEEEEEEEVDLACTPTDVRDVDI
T4 sequence (P06493 whole entry): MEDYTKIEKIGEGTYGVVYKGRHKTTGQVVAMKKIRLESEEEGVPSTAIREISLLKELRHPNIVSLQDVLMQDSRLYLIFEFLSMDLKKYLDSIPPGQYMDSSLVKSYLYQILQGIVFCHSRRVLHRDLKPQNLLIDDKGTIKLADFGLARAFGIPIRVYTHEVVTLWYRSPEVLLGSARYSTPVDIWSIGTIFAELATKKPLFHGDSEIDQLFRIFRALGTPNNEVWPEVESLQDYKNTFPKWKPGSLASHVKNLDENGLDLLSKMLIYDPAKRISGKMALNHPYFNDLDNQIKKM
T4 sequence (P14635 whole entry partner): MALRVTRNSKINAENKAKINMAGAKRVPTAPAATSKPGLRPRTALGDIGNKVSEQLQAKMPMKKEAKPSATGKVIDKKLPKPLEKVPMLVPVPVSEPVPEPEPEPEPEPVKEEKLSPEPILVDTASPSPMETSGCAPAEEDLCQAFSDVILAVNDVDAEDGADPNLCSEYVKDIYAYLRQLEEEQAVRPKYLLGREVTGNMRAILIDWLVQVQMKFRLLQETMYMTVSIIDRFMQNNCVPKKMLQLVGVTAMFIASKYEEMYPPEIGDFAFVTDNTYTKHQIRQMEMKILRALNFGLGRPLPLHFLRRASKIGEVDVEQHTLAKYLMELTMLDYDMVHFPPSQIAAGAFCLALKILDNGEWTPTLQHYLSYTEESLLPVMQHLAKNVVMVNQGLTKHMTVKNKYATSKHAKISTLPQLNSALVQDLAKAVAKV
T1 sequence (G1T8E2 1-432): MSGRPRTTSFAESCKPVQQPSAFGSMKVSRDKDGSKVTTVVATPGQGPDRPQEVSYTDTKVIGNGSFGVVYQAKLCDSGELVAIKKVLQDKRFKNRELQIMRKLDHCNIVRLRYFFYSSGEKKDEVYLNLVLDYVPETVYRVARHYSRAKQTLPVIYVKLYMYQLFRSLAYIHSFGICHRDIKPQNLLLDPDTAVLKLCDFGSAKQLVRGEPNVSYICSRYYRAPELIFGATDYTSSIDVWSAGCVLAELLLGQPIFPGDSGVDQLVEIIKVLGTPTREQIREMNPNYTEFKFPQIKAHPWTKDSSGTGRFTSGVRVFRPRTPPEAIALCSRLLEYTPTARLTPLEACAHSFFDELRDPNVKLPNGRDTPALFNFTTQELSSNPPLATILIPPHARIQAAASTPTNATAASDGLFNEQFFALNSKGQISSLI

As for `OCCc1sc(-c2ccnc(Nc3ccc(Cl)nc3)n2)nc1O` [XXVI, 2-[2-(6-Chloro-pyridin-3-ylamino)-pyrimidin-4-yl]-5-(2-hydroxy-ethyl)-thiazol-4-ol], the fold induction at 5 µM in experiment [1] came to 5.2 ± 3.2. Moreover, the IC50 in experiment [2] is 164 nM; in experiment [6], 2080 nM. In addition, the inhibition at 1 µM in experiment [3], in experiment [4] and in experiment [5] was under 50% each time.

For the molecule `c1cc(-c2nccs2)nc(Nc2ccc(N3CCCC3)nc2)n1` [XXIII, (6-Pyrrolidin-1-yl-pyridin-3-yl)-(4-thiazol-2-yl-pyrimidin-2-yl)-amine], in experiment [1], the fold induction at 5 µM was determined as 1.35 ± 0.07. For the same molecule, in experiment [2], the IC50 was found to be 482 nM. The inhibition at 1 µM in experiment [3], in experiment [4], in experiment [5] and in experiment [6] was under 50% in each case.

With `CCOC(=O)c1sc(-c2ccnc(Nc3ccc(Cl)cc3)n2)nc1O` [VII, 2-[2-(4-Chloro-phenylamino)-pyrimidin-4-yl]-4-hydroxy-thiazole-5-carboxylic acid ethyl ester], the fold induction at 5 µM in experiment [1] turned out to be 2.3. Besides, the IC50 in experiment [2] is 135 nM; in experiment [3], over 1000 nM; in experiment [4], over 10000 nM; in experiment [5], over 10000 nM; in experiment [6], over 10000 nM.

For the molecule `Cc1nc(-c2ccnc(Nc3cccc(C(F)(F)F)c3)n2)sc1C` [Compound X, [4-(4,5-Dimethyl-thiazol-2-yl)-pyrimidin-2-yl]-(3-trifluoromethyl-phenyl)-amine], the IC50 in experiment [2] turned out to be 12200 nM. The inhibition at 1 µM in experiment [3], in experiment [4], in experiment [5] and in experiment [6] was under 50% each time.

In the case of `Cc1sc(-c2ccnc(Nc3ccc(Cl)nc3)n2)nc1O` [XXV, 2-[2-(6-Chloro-pyridin-3-ylamino)-pyrimidin-4-yl]-5-methyl-thiazol-4-ol], in experiment [1], the fold induction at 5 µM was found to be 2.1 ± 0.3. Further, the IC50 in experiment [2] was determined as 80 nM. In addition, the inhibition at 1 µM in experiment [3], in experiment [4] and in experiment [5] was under 50% each time.

Regarding `Cc1nc(-c2ccnc(Nc3ccc(Cl)c(C(F)(F)F)c3)n2)sc1C` [Compound XI, (4-Chloro-3-trifluoromethyl-phenyl)-[4-(4,5-dimethyl-thiazol-2-yl)-pyrimidin-2-yl]-amine], the IC50 in experiment [2] came out at 15600 nM. Also, the inhibition at 1 µM in experiment [3], in experiment [4], in experiment [5] and in experiment [6] was under 50% throughout.

Regarding `COc1ccc(Nc2nccc(-c3nccs3)n2)cn1` [XIII, (6-Methoxy-pyridin-3-yl)-(4-thiazol-2-yl-pyrimidin-2-yl)-amine], the fold induction at 5 µM in experiment [1] was determined as 1.5. Moreover, the IC50 in experiment [2] is 910 nM; in experiment [3], over 50000 nM; in experiment [4], over 100000 nM; in experiment [5] it was over 100000 nM; in experiment [6], over 100000 nM.

Turning to `COc1ccc(Nc2nccc(-c3nc(C)c(C)s3)n2)cn1` [XVI, [4-(4,5-Dimethyl-thiazol-2-yl)-pyrimidin-2-yl]-(6-methoxy-pyridin-3-yl)-amine], the IC50 was 5450 nM in experiment [2]; over 1000 nM in experiment [3]; over 10000 nM in experiment [4]; over 10000 nM in experiment [5]; over 10000 nM in experiment [6].

Turning to `Cc1cc(Nc2nccc(-c3nccs3)n2)cnc1Cl` [XXVII, (6-Chloro-5-methyl-pyridin-3-yl)-(4-thiazol-2-yl-pyrimidin-2-yl)-amine], in experiment [1], the fold induction at 5 µM stood at 1.5 ± 0.4. Moreover, the IC50 in experiment [2] amounted to 90 nM. This molecule also displayed an inhibition at 1 µM in experiment [3] of under 50%.

With `Cc1nc(-c2ccnc(Nc3cccc(N)c3)n2)sc1C` [VIII, N-[4-(4,5-Dimethyl-thiazol-2-yl)-pyrimidin-2-yl]-benzene-1,3-diamine], in experiment [2], the IC50 was 3470 nM. Also, the inhibition at 1 µM in experiment [3], in experiment [4], in experiment [5] and in experiment [6] was under 50% in each case.

Turning to `CCOC(=O)c1sc(-c2ccnc(Nc3ccc(Cl)nc3)n2)nc1O` [XXIV, 2-[2-(6-Chloro-pyridin-3-ylamino)-pyrimidin-4-yl]-4-hydroxy-thiazole-5-carboxylic acid ethylester], the fold induction at 5 µM in experiment [1] amounted to 4.3 ± 0.32. Besides, the IC50 turned out to be 19 nM in experiment [2] and 960 nM in experiment [6]. Further, the inhibition at 1 µM in experiment [3], in experiment [4] and in experiment [5] was under 50% throughout.

With `Cc1nc(-c2ccnc(Nc3ccc(Cl)nc3)n2)sc1C` [XVII, (6-Chloro-pyridin-3-yl)-[4-(4,5-dimethyl-thiazol-2-yl)-pyrimidin-2-yl]-amine], the IC50 in experiment [2] was 2910 nM; in experiment [3], over 10000 nM; in experiment [4] it was over 10000 nM; in experiment [5] it was over 10000 nM; in experiment [6] it was over 10000 nM.

With `Cc1nc(-c2ccnc(Nc3cccc(O)c3)n2)sc1C` [IX, 3-[4-(4,5-Dimethyl-thiazol-2-yl)-pyrimidin-2-ylamino]-phenol], in experiment [2], the IC50 is 1530 nM. Also, the inhibition at 1 µM in experiment [3], in experiment [4], in experiment [5] and in experiment [6] was under 50% throughout.
